The values that follow come from patent publication US11098032B2, “Pyran dervatives as CYP11A1 (cytochrome P450 monooxygenase 11A1) inhibitors” (ORION CORPORATION, priority 2016, dated 2021).

This assay has as its target T1, CYP11A1 (Homo sapiens, UniProt P05108).
T1 construct: human H295R adrenocortical carcinoma cell line was used as source of enzyme; endogenous in cells; host or cells: H295R human adrenocortical carcinoma cells
T1 sequence (P05108 40-521): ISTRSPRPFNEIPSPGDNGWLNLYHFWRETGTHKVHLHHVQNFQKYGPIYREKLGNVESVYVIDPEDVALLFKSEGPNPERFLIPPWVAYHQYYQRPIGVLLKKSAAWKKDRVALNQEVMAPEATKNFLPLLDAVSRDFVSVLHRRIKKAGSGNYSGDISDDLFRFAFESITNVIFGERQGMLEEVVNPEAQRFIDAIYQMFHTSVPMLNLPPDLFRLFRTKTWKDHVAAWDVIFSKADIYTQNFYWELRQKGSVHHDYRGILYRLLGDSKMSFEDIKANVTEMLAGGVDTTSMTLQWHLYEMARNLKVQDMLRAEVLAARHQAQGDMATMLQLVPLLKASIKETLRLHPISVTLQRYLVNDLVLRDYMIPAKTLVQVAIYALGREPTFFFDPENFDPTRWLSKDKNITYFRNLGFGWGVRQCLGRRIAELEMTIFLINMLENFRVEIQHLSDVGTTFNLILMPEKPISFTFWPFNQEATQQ
Kind of assay: CYP11A1 inhibition: modified isocaproic acid release assay (IARA) in H295R cells. It is filed as cell-based. The settings on record: human H295R adrenocortical carcinoma cells treated three days, 3 nM [24,25-3H]-labelled cholesterol, 1% DMSO, 10 concentrations in duplicates; read-out: IC50 of the test compounds on CYP11A1 inhibition. As for the experimental part: The ability of the test compounds to inhibit conversion of cholesterole to pregnenolone and isocaproic acid was measured by modification of isocaproic acid release assay (IARA) described by Ruangwises et. al. (Biology of Reproduction 1991; 45(1):143-50) except that human H295R adrenocortical carcinoma cell line was used as source of enzyme and extraction was done with dextran-coated charcoal suspension (Isomaa, V. et al., Endocrinology 1982; 111(3):833-843). […] To determine the half maximal inhibitory concentration (IC50) of the test compounds on CYP11A1 inhibition, the cells were treated for three days with increasing concentrations of the test compounds in the presence of 3 nM [24,25-3H]-labelled cholesterol (American Radiolabelled Chemicals). The final DMSO concentration was 1%. Cell culture medium was extracted with dextran-coated charcoal suspension and the radiolabelled isocaproic acid was determined by mixing 100 μl of supernatant fraction in 200 μl of scintillation fluid (OptiPhase SuperMix, Perkin Elmer). Radioactivity was measured using a Microbeta scintillation counter (1450 MicroBeta Trilux, Wallac). All the test compounds were studied at 10 concentrations in duplicates.
Consider `O=C(c1ccc(COc2coc(CN3Cc4ccccc4C3)cc2=O)c(F)c1)N1CCC1` [Compound 95, 5-((4-(Azetidine-1-carbonyl)-2-fluorobenzyl)oxy)-2-(isoindolin-2-ylmethyl)-4H-pyran-4-one], for which the half-inhibitory concentration (IC50) is below 150 nM.

Turning to `CS(=O)(=O)N1CCC(F)(COc2coc(CN3Cc4ccc(F)cc4C3)cc2=O)CC1` [Compound 237, 5-((4-Fluoro-1-(methylsulfonyl)piperidin-4-yl)methoxy)-2-((5-fluoroisoindolin-2-yl)methyl)-4H-pyran-4-one], the IC50 is 150 to 300 nM.

For the molecule `COCCS(=O)(=O)c1ccc(COc2coc(CN3Cc4ccc(F)cc4C3)cc2=O)cc1` [Compound 29, 2-((5-Fluoroisoindolin-2-yl)methyl)-5-((4-((2-methoxyethyl)sulfonyl)benzyl)oxy)-4H-pyran-4-one], the IC50 lay in the range of 150 to 300 nM.

For the molecule `O=c1cc(CN2Cc3ccccc3C2)occ1OCCCc1ccncc1` [Compound 214, 2-(Isoindolin-2-ylmethyl)-5-(3-(pyridin-4-yl)propoxy)-4H-pyran-4-one], the IC50 was 150 to 300 nM.

`O=c1cc(CN2Cc3ccccc3C2)occ1OCc1ccc(C2(O)CCC2)cc1` [Compound 111, 5-((4-(1-Hydroxycyclobutyl)benzyl)oxy)-2-(isoindolin-2-ylmethyl)-4H-pyran-4-one]: the IC50 is below 150 nM.

For the molecule `CS(=O)(=O)N1CCC(COc2coc(CN3Cc4ccc([N+](=O)[O-])cc4C3)cc2=O)CC1` [Compound 207, 5-((1-(Methylsulfonyl)piperidin-4-yl)methoxy)-2-((5-nitroisoindolin-2-yl)methyl)-4H-pyran-4-one], the IC50 is 301 to 2000 nM.

On to `CC(C)S(=O)(=O)N1CC=C(COc2coc(CN3Cc4ccccc4C3)cc2=O)CC1` [Compound 100, 2-(Isoindolin-2-ylmethyl)-5-((1-(isopropylsulfonyl)-1,2,3,6-tetrahydropyridin-4-yl)methoxy)-4H-pyran-4-one], for which the IC50 was 150 to 300 nM.

For `CN(CCO)S(=O)(=O)c1ccc(COc2coc(CN3Cc4ccccc4C3)cc2=O)cc1` [Compound 12, N-(2-Hydroxyethyl)-4-(((6-(isoindolin-2-ylmethyl)-4-oxo-4H-pyran-3-yl)-oxy)methyl)-N-methylbenzenesulfonamide], the half-maximal inhibitory concentration (IC50) was below 150 nM.

As for `CC(C)(C)C(=O)N1CCC(COc2coc(CN3Cc4ccccc4C3)cc2=O)CC1` [Compound 251, 2-(Isoindolin-2-ylmethyl)-5-((1-pivaloylpiperidin-4-yl)methoxy)-4H-pyran-4-one], the concentration for half-maximal inhibition (IC50) was below 150 nM.

For `CS(=O)(=O)N1CCC(COc2coc(CN3Cc4ccccc4C3)cc2=O)C(O)C1` (centres unmarked) [Compound 193, 5-((3-Hydroxy-1-(methylsulfonyl)piperidin-4-yl)methoxy)-2-(isoindolin-2-yl-methyl)-4H-pyran-4-one], the half-maximal inhibitory concentration (IC50) lay in the range of 301 to 2000 nM.

For the molecule `O=c1cc(CN2Cc3ccc(C(F)(F)F)cc3C2)occ1OCc1ccc(C2(O)COC2)cc1` [Compound 116, 5-((4-(3-Hydroxyoxetan-3-yl)benzyl)oxy)-2-((5-(trifluoromethyl)isoindolin-2-yl)methyl)-4H-pyran-4-one], the half-inhibitory concentration (IC50) was below 150 nM.

In the case of `COc1ccc2c(c1)CCN(Cc1cc(=O)c(OCc3ccc(C#N)cc3)co1)C2` [Compound 53, 4-(((6-((6-Methoxy-3,4-dihydroisoquinolin-2(1H)-yl)methyl)-4-oxo-4H-pyran-3-yl)oxy)methyl)benzonitrile], the IC50 fell in the range of 150 to 300 nM.

In the case of `O=c1cc(CN2Cc3ccccc3C2)occ1OCc1ccc(S(=O)(=O)N2CCCCC2)cc1` [Compound 7, 2-(Isoindolin-2-ylmethyl)-5-((4-(piperidin-1-ylsulfonyl)benzyl)oxy)-4H-pyran-4-one], the IC50 lay in the range of 150 to 300 nM.

In the case of `O=c1cc(CN2Cc3ccccc3C2)occ1OCC1CCC(CN2CCCS2(=O)=O)CC1` (centres unmarked) [Compound 176, 5-((4-((1,1-Dioxidoisothiazolidin-2-yl)methyl)cyclohexyl)methoxy)-2-(isoindolin-2-ylmethyl)-4H-pyran-4-one], the IC50 was below 150 nM.

Take `CC1(C)c2ccccc2CN1Cc1cc(=O)c(OCC2CCN(S(C)(=O)=O)CC2)co1` [Compound 212, 2-((1,1-Dimethylisoindolin-2-yl)methyl)-5-((1-(methylsulfonyl)piperidin-4-yl)-methoxy)-4H-pyran-4-one]: the IC50 lay in the range of 301 to 2000 nM.

`CS(=N)(=O)c1ccc(COc2coc(CN3Cc4ccc(OC(F)(F)F)cc4C3)cc2=O)cc1` (centres unmarked) [Compound 90, 5-((4-(S-Methylsulfonimidoyl)benzyl)oxy)-2-((5-(trifluoromethoxy)isoindolin-2-yl)methyl)-4H-pyran-4-one]: the IC50 was below 150 nM.

As to `CS(=O)(=O)c1ccc(COc2coc(CN3Cc4ccc(OC(F)(F)F)cc4C3)cc2=O)cc1` [Compound 37, 5-((4-(Methylsulfonyl)benzyl)oxy)-2-((5-(trifluoromethoxy)isoindolin-2-yl)-methyl)-4H-pyran-4-one], the IC50 was below 150 nM.

Consider `Cc1ccc(S(=O)(=O)N=S(C)(=O)C2CCC(COc3coc(CN4Cc5ccccc5C4)cc3=O)CC2)cc1` (centres unmarked) [Compound 239, N-{[4-({[6-(1,3-Dihydro-2H-isoindol-2-ylmethyl)-4-oxo-4H-pyran-3-yl]oxy}-methyl)cyclohexyl](methyl)oxido-λ^6-sulfanylidene}-4-methylbenzenesulfonamide], for which the half-maximal inhibitory concentration (IC50) lay in the range of 150 to 300 nM.

For the molecule `CC1(COc2coc(CN3Cc4ccccc4C3)cc2=O)CCN(S(C)(=O)=O)CC1` [Compound 191, 2-(Isoindolin-2-ylmethyl)-5-((4-methyl-1-(methylsulfonyl)piperidin-4-yl)-methoxy)-4H-pyran-4-one], the IC50 lay within 150 to 300 nM.

Turning to `O=C(N1CCC(COc2coc(CN3Cc4ccccc4C3)cc2=O)CC1)C(F)(F)F` [Compound 273, 2-(Isoindolin-2-ylmethyl)-5-((1-(2,2,2-trifluoroacetyl)piperidin-4-yl)methoxy)-4H-pyran-4-one], the IC50 lay within 150 to 300 nM.

Take `CS(=O)(=O)c1ccc(COc2coc(CN3CCc4ccccc4C3)cc2=O)c(Cl)c1` [Compound 18, 5-((2-Chloro-4-(methylsulfonyl)benzyl)oxy)-2-((3,4-dihydroisoquinolin-2(1H)-yl)methyl)-4H-pyran-4-one]: the IC50 was in the range of 301 to 2000 nM.

Take `NC(=O)c1ccc(COc2coc(CN3CCc4ccccc4C3)cc2=O)cc1` [Compound 43, 4-(((6-((3,4-Dihydroisoquinolin-2(1H)-yl)methyl)-4-oxo-4H-pyran-3-yl)oxy)-methyl)benzamide]: the concentration for half-maximal inhibition (IC50) was 301 to 2000 nM.

Take `O=C1NCc2cc(COc3coc(CN4Cc5ccccc5C4)cc3=O)ccc21` [Compound 180, 5-(((6-(Isoindolin-2-ylmethyl)-4-oxo-4H-pyran-3-yl)oxy)methyl)isoindolin-1-one]: the IC50 was 150 to 300 nM.

With `CCCCCCNC(=O)c1ccc(COc2coc(CN3Cc4ccccc4C3)cc2=O)cc1` [Compound 142, N-Hexyl-4-(((6-(isoindolin-2-ylmethyl)-4-oxo-4H-pyran-3-yl)oxy)methyl)-benzamide], the IC50 was in the range of 150 to 300 nM.

As to `O=c1cc(CN2Cc3ccccc3C2)occ1OCc1ccc(CO)cc1` [Compound 123, 5-((4-(Hydroxymethyl)benzyl)oxy)-2-(isoindolin-2-ylmethyl)-4H-pyran-4-one], the half-inhibitory concentration (IC50) lay in the range of 301 to 2000 nM.

In the case of `CCS(=N)(=O)c1ccc(COc2coc(CN3CCc4ccccc4C3)cc2=O)cc1` (centres unmarked) [Compound 166, 2-((3,4-Dihydroisoquinolin-2(1H)-yl)methyl)-5-((4-(ethylsulfonimidoyl)-benzyl)oxy)-4H-pyran-4-one], the IC50 lay in the range of 301 to 2000 nM.
